Results as given in patent US20250320290A1, “METHODS FOR TRIGGERING SAFETY KILLING […] USING A CD47-SIRPalpha BLOCKADE AGENT” (Sana Biotechnology, Inc., priority 2020, published 2025).
Entries after “also recorded” stand apart in the source; their conditions may differ.

How the values were obtained:
[1] = tested on: human HIP iPSCs (CyD clone 2G11); test: Cytosine deaminase kill switch: s.c. HIP-CyD iPSCs in NSG mice; type: in vivo
Protocol: (§1) Subcutaneous. Healthy male NSG mice were anesthetized via isoflurane inhalation anesthesia in a knockdown chamber. The anesthetized mice were removed from the chamber and placed in a supine position. The injection site (right inguinal area) was sprayed with 70% EtOH. Cells were injected subcutaneously proximal to the inguinal region.
(§2) Mice were anesthetized via isoflurane inhalation anesthesia and injected intraperitoneally (IP) with 250 μl luciferin (45.45 mg/ml). The mice were then positioned in a nose cone in the bioluminescence chamber (anesthesia was maintained at 1.5% with 500 ml oxygen/min). The mice were imaged for 180 seconds. A circle was drawn around the region of interest (ROI) giving a reading of photons/sec of emitted light.
Human HIP iPSCs (CyD clone 2G11) were injected subcutaneously into Group 1 NSG mice. Flucytosine LD (200 mg/kg) treatment was administered daily intraperitoneally. […] Group 1 mice treatment was as follows: 1×10^6 hiPSC HIP CyD clone 2G11 in diluted MG, S.C.; treatment=200 mg/kg/day Flucytosine, IP (DO).

[2] = tested on: human HIP iPSCs (clone 15; no kill switch); test: s.c. HIP iPSCs without kill switch in NSG mice treated with pro-drug; type: in vivo
Protocol: as §1, §2
Human HIP iPSCs (clone 15; no kill switch) were injected subcutaneously into Group 6 NSG mice. Flucytosine HD (500 mg/kg) treatment was administered daily intraperitoneally. As shown in FIG. 81A-B, human HIP iPSC survival appeared to be impaired by flucytosine HD although cells had no kill switch. The group was expanded for data validation (FIG. 81C-D and FIG. 81E-F). […]
Human HIP iPSCs (clone 15; no kill switch) were injected subcutaneously into Group 6 NSG mice. Ganciclovir HD (75 mg/kg) treatment was administered daily intraperitoneally starting Day 0. […]

[3] = tested on: human HIP iPSCs (HSVTk clone 1-B10); test: HsVtk kill switch: s.c. HIP-HsVtk iPSCs in NSG mice; type: in vivo
Protocol: as §1, §2
Human HIP iPSCs (HSVTk clone 1-B10) were injected subcutaneously into Group 1 NSG mice. Ganciclovir LD (50 mg/kg) treatment was performed daily intraperitoneally. […] Mice were checked during a 44D follow up. Group 1 mice treatment was as follows: 1×10^6 hiPSCs HIP HSVtk clone 1-B10 luc+ in diluted MG, S.C.; treatment was 50 mg/kg/day Ganciclovir, IP (DO).

[4] = intravenous, cited from earlier work
human HIP iPSCs [5] = test: Subcutaneous human HIP iPSCs in NSG mice with adoptive transfer of human NK cells, BLI; type: in vivo
Protocol: as §1
The mice were then positioned in a nose cone in the bioluminescence chamber (anesthesia was maintained at 1.5% with 500 ml oxygen/min). The mice were imaged for 180 seconds. A circle was drawn around the region of interest (ROI) giving a reading of photons/sec of emitted light.
IP dosing. The antibody (100 μl) was injected into the peritoneal cavity from the ventral surface by piercing the skin and muscle layers.
SC dosing. Mice were anesthetized via isoflurane inhalation anesthesia and placed in a supine position. The injection site (right inguinal area) was sprayed with 70% EtOH and the antibody (100 μl) was injected into the area of the implanted cells.

[6] = tested on: HIP CD19CAR-T cells (B2M−/−, CIITA−/−, TRAC−/−, CD19-specific CAR-CD47 T cells); test: Innate killing (NK cells, macrophages) by real-time cell analysis, HIP CAR-T cells; type: cell-based, human; settings: pretreated with CD47 blocking antibody, E:T 1:1
Protocol: Briefly, T-cells were plated in CD19^+ tumor cell specific media. After cell index value reached 0.7, human NK cells or human macrophages were added with an E:T ratio of 1:1 with human IL-2 for NK cells and without IL-2 for macrophages. […] Data were standardized and analyzed with the real-time cell analysis instrument software.
After about 48 hours, T-cells were collected and stained with components of a live/dead cell viability staining assay. Briefly, cells were stained with calcein AM and ethidium homodimer-1 according to the manufacturer's protocol. The analysis was performed by flow cytometry and the results were expressed as percentage of dead cells.

mock transfected T cells = test: Innate killing by real-time cell analysis, mock transfected T cells; type: cell-based, human; settings: in the presence of the antibody
human HIP iPSCs [7] = test: In vitro killing of human HIP iPSCs by human NK cells and macrophages with anti-CD47 antibody; type: cell-based; settings: 100 μg/ml antibody

## Nc1[nH]c(=O)ncc1F [Flucytosine]
[1]; HD 500 mg/kg daily intraperitoneally from D0
  time to killing of HIP-CyD iPSCs: 16 to 32 days
[1]; HD 500 mg/kg daily intraperitoneally from Day 13
  time to killing of HIP-CyD iPSCs after starting treatment: 3 to 11 days
[1]; LD 200 mg/kg daily intraperitoneally from D0
  time to killing of HIP-CyD iPSCs: 16 to 44 days
[1]; LD 200 mg/kg daily intraperitoneally from Day 13
  time to killing of HIP-CyD iPSCs after starting treatment: 3 to 11 days
[1]; treatment from D0
  benefit of HD as compared to LD: No major benefit
[1]; treatment from Day 13
  benefit of HD compared to LD: No benefit
[2]; Flucytosine HD 500 mg/kg daily intraperitoneally
  survival of HIP iPSCs without kill switch: impaired

## Nc1nc(O)c2ncn(COC(CO)CO)c2n1 [Ganciclovir]
[2]; Ganciclovir HD 75 mg/kg daily intraperitoneally from Day 0
  impact on HIP iPSCs without kill switch: no killing; also recorded: no impact
[3]; HD 75 mg/kg daily intraperitoneally from D0
  time to killing of HIP-HsVtk iPSCs: 12 to 16 days
[3]; HD 75 mg/kg daily intraperitoneally from Day 13
  time to killing of HIP-HsVtk iPSCs after start of treatment: ≤ 7 days
[3]; LD 50 mg/kg daily intraperitoneally from D0
  time to killing of HIP-HsVtk iPSCs: 12 to 24 days
[3]; LD 50 mg/kg daily intraperitoneally from Day 13
  time to killing of HIP-HsVtk iPSCs after start of treatment: ≤ 7 days
[3]; treatment from D0
  benefit of HD: slightly beneficial
[3]; treatment from Day 13
  benefit of HD compared to LD: No obvious benefit

## TTI-621: fusion protein of N-terminal V domain of human SIRPα fused to human IgG1 Fc region (SEQ ID NO:133)
[4]; monotherapy, relapsed/refractory hematologic malignancies and selected solid tumors
  maximum tolerated dose (MTD): 0.2 mg/kg
[4]; phase 1
  tolerability: well tolerated

B1: magrolimab: anti-CD47 antibody magrolimab (Hu5F9-G4) (Forty Seven, Inc.; Gilead Sciences, Inc.) (antibody, chains of the INN, looked up, V domains shown)
VH: QVQLVQSGAEVKKPGASVKVSCKASGYTFTNYNMHWVRQAPGQRLEWMGTIYPGNDDTSYNQKFKDRVTITADTSASTAYMELSSLRSEDTAVYYCARGGYRAMDYWGQGTLVTVSS
VL: DIVMTQSPLSLPVTPGEPASISCRSSQSIVYSNGNTYLGWYLQKPGQSPQLLIYKVSNRFSGVPDRFSGSGSGTDFTLKISRVEAEDVGVYYCFQGSHVPYTFGQGTKLEIK
Human HIP iPSCs [5]; magrolimab D0-D10, 5×10^4 iPSCs, 1×10^6 NK cells
  killing of HIP iPSCs: killing of HIP iPSCs
Human HIP iPSCs [5]; magrolimab stopped after D10, 6-month follow up
  re-appearance of iPSCs: didn't re-appear
[6]
  killing of HIP CAR-T cells by macrophages and NK cells on CD47 blocking: susceptible to macrophage and NK cell killing
[6]; listed as macrolimab
  killing of HIP CAR-T cells by macrophages and NK cells on CD47 blocking: induced killing
Mock transfected T cells
  killing of mock transfected T cells by NK cell and macrophages: not killed
Human HIP iPSCs [7]
  killing of human HIP iPSCs by human NK cells: killing
  killing of human HIP iPSCs by human macrophages: killing
